Laboratory results taken from patent US6541062B2, “Water-soluble soybean extracts” (priority 1999, dated 2003).
≈ marks a conversion by molar mass, not a printed value.

Columns and labels:
[1] = solubility in water (stepwise addition of water, visual inspection); assay type: physicochemical; settings: 25 °C, thermodynamic from solid
Procedure: A clear water-soluble soybean-based extract (2 liters) obtained in the same manner as described in Example 1. The extract solution was then lyophilized using a lyophilizer manufactured by Bertis Corp for 2 days at −85° C. under 10 mm Torr, resulting in 350 g of a pale yellow dry cake. […] The solubility was tested by first adding 1 g of the dried extract into 1 ml of pure water at 25° C. with agitation for 5 min. If the extract was not completely dissolved (visual inspection), another 1 ml of water was added and the resulting mixture agitated for 5 minutes at 25° C. Next, the mixture was visually inspected to determine if the extract had completely dissolved. If not, water at 25° C. was added in 1 ml increments and agitated for 5 minutes after each addition of water until the extract was completely dissolved by visual inspection. .

solubility in methanol = assay type: physicochemical; settings: organic solvent or mixture, 25° C.

- solubility at 5 min [1]: ~1000 µg/mL (≈ 2.31 mM)
- solubility (solubility in methanol): ~5000 µg/mL (≈ 11.6 mM)
Compound: O=c1c(-c2ccc(O)cc2)coc2cc(O[C@@H]3O[C@H](CO)[C@@H](O)[C@H](O)[C@H]3O)cc(O)c12 [genistin]
